Results as given in patent US5852210A, “Cinnamic acid derivatives” (G. D. Searle & Co., priority 1997, dated 1998).
Structures can show the parent of a compound that is named as a salt.

Tests used:
[1] = target: T1, Human vitronectin receptor (αv β3) (Homo sapiens, UniProt P05106+P06756); experiment: Vitronectin adhesion assay (solid phase receptor assay, αvβ3); type: binding; settings: inhibition of binding of biotinylated human vitronectin (1 nM) to purified receptor; Table I; read-out: AvB3 IC50
T1 construct: Human vitronectin receptor (αv β3) was purified from human placenta; from tissue; host or cells: human placenta
T1 sequence (P06756 31-889 limits assumed): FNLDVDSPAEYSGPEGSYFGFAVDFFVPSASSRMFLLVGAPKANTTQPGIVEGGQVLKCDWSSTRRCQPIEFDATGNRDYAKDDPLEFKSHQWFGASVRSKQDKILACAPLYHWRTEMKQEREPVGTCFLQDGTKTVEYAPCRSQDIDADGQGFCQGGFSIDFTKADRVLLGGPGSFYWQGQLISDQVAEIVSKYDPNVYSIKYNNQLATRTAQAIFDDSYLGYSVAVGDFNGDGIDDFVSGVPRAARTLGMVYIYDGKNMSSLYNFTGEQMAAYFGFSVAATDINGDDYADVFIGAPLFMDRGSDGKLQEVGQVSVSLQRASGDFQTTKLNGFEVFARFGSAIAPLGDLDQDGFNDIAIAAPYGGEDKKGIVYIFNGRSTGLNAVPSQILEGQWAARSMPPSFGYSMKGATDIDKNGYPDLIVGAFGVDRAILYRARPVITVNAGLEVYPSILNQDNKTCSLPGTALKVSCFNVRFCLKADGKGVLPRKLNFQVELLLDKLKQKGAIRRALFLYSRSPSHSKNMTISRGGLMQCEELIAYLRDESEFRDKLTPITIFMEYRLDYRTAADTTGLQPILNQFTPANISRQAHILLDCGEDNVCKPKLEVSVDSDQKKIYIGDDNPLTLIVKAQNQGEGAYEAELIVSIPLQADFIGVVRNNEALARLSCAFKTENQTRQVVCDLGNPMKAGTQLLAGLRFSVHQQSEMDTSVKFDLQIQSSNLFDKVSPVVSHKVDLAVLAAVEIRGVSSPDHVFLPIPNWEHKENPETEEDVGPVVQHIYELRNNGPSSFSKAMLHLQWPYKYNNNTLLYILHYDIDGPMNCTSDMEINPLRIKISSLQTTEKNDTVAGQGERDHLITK
T1 sequence (P06756 891-1048 limits assumed): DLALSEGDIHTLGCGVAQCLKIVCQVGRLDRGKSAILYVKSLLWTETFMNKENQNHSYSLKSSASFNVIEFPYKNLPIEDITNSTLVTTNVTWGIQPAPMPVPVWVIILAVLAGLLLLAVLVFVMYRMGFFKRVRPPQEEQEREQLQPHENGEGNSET
T1 sequence (P05106 27-788): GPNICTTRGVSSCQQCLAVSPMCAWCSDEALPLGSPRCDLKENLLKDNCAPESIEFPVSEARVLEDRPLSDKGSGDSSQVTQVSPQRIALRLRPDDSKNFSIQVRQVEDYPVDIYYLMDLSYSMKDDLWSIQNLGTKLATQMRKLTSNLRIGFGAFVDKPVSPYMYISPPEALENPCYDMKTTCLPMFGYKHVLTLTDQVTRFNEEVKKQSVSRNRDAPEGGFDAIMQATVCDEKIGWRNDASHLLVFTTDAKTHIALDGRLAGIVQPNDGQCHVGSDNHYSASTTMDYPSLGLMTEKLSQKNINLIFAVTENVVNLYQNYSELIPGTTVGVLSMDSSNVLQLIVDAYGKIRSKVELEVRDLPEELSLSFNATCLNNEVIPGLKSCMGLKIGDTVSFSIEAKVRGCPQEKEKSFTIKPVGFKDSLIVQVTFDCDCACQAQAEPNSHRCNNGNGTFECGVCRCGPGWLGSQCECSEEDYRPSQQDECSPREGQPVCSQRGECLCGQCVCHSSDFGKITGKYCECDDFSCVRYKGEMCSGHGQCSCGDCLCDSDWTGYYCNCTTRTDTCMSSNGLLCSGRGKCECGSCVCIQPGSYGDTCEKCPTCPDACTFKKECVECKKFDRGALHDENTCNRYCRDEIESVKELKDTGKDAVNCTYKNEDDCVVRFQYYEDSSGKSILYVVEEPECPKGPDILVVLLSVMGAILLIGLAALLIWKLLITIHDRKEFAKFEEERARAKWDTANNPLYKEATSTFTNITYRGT
Description: (§1) The activity of the compounds of the present invention was tested in the following assays.
Human vitronectin receptor (αv β3) was purified from human placenta as previously described [Pytela et al., Methods in Enzymology, 144:475-489 (1987)]. Human vitronectin was purified from fresh frozen plasma as previously described [Yatohgo et al., Cell Structure and Function, 13:281-292 (1988)]. Biotinylated human vitronectin was prepared by coupling NHS-biotin from Pierce Chemical Company (Rockford, Ill.) to purified vitronectin as previously described [Charo et al., J. Biol. Chem., 266(3):1415-1421 (1991)]. Assay buffer, OPD substrate tablets, and RIA grade BSA were obtained from Sigma (St. Louis, Mo.). Anti-biotin antibody was obtained from Calbiochem (La Jolla, Calif.). Linbro microtiter plates were obtained from Flow Labs (McLean, Va.). ADP reagent was obtained from Sigma (St. Louis, Mo.).
(§2) Solid Phase Receptor Assays
This assay was essentially the same as previously reported [Niiya et al., Blood, 70:475-483 (1987)]. The purified human vitronectin receptor (αv β3) was diluted from stock solutions to […] in Tris-buffered saline containing 1.0 mM Ca^++, Mg^++, and Mn^++, pH 7.4 (TBS^+++). The diluted receptor was immediately transferred to Linbro microtiter plates at 100 μL/well (100 ng receptor/well). The plates were sealed and incubated overnight at 4° C. to allow the receptor to bind to the wells. All remaining steps were at room temperature. The assay plates were emptied and 200 μL, of 1% RIA grade BSA in TBS^+++ (TBS^+++ /BSA) were added to block exposed plastic surfaces. Following a 2 hour incubation, the assay plates were washed with TBS^+++ using a 96 well plate washer. Logarithmic serial dilution of the test compound and controls were made starting at a stock concentration of 2 mM and using 2 nM biotinylated vitronectin in TBS^+++ /BSA as the diluent. This premixing of labeled ligand with test (or control) ligand, and subsequent transfer of 50 μL aliquots to the assay plate was carried out with a CETUS Propette robot; the final concentration of the labeled ligand was 1 nM and the highest concentration of test compound was 1.0×10^-4 M. The competition occurred for two hours after which all wells were washed with a plate washer as before. Affinity purified horseradish peroxidase labeled goat anti-biotin antibody was diluted 1:3000 in TBS^+++ /BSA and 125 μL were added to each well. After 30 minutes, the plates were washed and incubated with OPD/H2 O2 substrate in 100 mM/L Citrate buffer, pH 5.0. The plate was read with a microtiter plate reader at a wavelength of 450 nm and when the maximum-binding control wells reached an absorbance of about 1.0, the final A450 were recorded for analysis. The data were analyzed using a macro written for use with the EXCEL™ spreadsheet program. The mean, standard deviation, and % CV were determined for duplicate concentrations. The mean A450 values were normalized to the mean of four maximum-binding controls (no competitor added) (B-MAX). The normalized values were subjected to a four parameter curve fit algorithm [Rodbard et al., Int.

[2] = target: T2, Human fibrinogen receptor (αIIb β3) (Homo sapiens, UniProt P05106+P08514); experiment: Purified IIb/IIIa receptor assay (solid phase receptor assay); settings: inhibition of binding of biotinylated human vitronectin (1 nM) to purified receptor; Table I
T2 construct: Human fibrinogen receptor (αIIb β3) was purified from outdated platelets; from tissue; host or cells: human outdated platelets
T2 sequence (P08514 32-887 limits assumed): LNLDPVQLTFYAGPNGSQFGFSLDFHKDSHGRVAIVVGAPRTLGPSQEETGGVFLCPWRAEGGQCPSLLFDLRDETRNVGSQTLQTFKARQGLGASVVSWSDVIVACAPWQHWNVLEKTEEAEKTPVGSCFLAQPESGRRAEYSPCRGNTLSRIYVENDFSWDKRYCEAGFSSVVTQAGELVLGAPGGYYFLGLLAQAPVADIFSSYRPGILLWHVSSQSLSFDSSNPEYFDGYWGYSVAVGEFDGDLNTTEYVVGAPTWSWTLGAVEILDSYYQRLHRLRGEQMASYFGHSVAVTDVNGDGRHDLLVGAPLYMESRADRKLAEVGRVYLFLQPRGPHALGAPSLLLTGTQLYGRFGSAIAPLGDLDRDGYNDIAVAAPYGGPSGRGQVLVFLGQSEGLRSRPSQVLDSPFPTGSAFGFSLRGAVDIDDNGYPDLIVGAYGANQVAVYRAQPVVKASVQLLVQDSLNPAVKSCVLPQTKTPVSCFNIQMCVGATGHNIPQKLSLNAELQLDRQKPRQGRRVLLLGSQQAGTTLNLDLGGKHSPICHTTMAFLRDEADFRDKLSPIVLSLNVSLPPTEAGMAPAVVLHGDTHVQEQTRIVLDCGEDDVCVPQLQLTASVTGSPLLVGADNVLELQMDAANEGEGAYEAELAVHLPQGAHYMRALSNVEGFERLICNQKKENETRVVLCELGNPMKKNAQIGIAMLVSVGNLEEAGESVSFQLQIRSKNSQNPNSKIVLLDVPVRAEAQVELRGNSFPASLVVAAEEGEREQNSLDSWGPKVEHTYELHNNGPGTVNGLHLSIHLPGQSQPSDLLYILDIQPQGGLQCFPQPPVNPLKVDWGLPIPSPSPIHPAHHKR
T2 sequence (P08514 891-1039 limits assumed): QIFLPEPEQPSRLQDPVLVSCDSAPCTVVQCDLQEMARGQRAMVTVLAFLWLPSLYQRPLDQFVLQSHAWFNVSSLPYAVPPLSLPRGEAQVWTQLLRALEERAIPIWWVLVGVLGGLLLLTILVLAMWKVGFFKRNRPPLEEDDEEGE
T2 sequence (P05106 27-788): as the sequence (P05106 27-788) above
Description: as §1
Human fibrinogen receptor (αIIb β3) was purified from outdated platelets. (Pytela, R., Pierschbacher, M. D., Argraves, S., Suzuki, S., and Rouslahti, E. "Arginine-Glycine-Aspartic acid adhesion receptors", Methods in Enzymology 144(1987):475-489.) Human vitronectin was purified from fresh frozen plasma as described in Yatohgo, T., Izumi, M., Kashiwagi, H., and Hayashi, M., "Novel purification of vitronectin from human plasma by heparin affinity chromatography," Cell Structure and Function 13(1988):281-292. Biotinylated human vitronectin was prepared by coupling NHS-biotin from Pierce Chemical Company (Rockford, Ill.) to purified vitronectin as previously described. (Charo, I. F., Nannizzi, L., Phillips, D. R., Hsu, M. A., Scarborough, R. M., "Inhibition of fibrinogen binding to GP IIb/IIIa by a GP IIIa peptide", J. Biol. Chem. 266(3) (1991): 1415-1421.) Assay buffer, OPD substrate tablets, and RIA grade BSA were obtained from Sigma (St. Louis, Mo.). Anti-biotin antibody was obtained from Calbiochem (La Jolla, Calif.). Linbro microtiter plates were obtained from Flow Labs (McLean, Va.). ADP reagent was obtained from Sigma (St. Louis, Mo.).
as §2
This assay is essentially the same reported in Niiya, K., Hodson, E., Bader, R., Byers-Ward, V. Koziol, J. A., Plow, E. F. and Ruggeri, Z. M., "Increased surface expression of the membrane glycoprotein IIb/IIIa complex induced by platelet activation: Relationships to the binding of fibrinogen and platelet aggregation", Blood 70 (1987):475-483. The purified human fibrinogen receptor (αIIb β3) was diluted from stock solutions to 1.0 μg/mL in Tris-buffered saline containing 1.0 mM Ca^++, Mg^++, and Mn^++, pH 7.4 (TBS^+++). The diluted receptor was immediately transferred to Linbro microtiter plates at 100 μL/well (100 ng receptor/well). The plates were sealed and incubated overnight at 4° C. to allow the receptor to bind to the wells. All remaining steps were at room temperature. The assay plates were emptied and 200 μL of 1% RIA grade BSA in TBS^+++ (TBS^+++ /BSA) were added to block exposed plastic surfaces. Following a 2 hour incubation, the assay plates were washed with TBS^+++ using a 96 well plate washer. Logarithmic serial dilution of the test compound and controls were made starting at a stock concentration of 2 mM and using 2 nM biotinylated vitronectin in TBS^+++ /BSA as the diluent. This premixing of labeled ligand with test (or control) ligand, and subsequent transfer of 50 μL aliquots to the assay plate was carried out with a CETUS Propette robot; the final concentration of the labeled ligand was 1 nM and the highest concentration of test compound was 1.0×10^-4 M. The competition occurred for two hours after which all wells were washed with a plate washer as before. Affinity purified horseradish peroxidase labeled goat anti-biotin antibody was diluted 1:3000 in TBS^+++ /BSA and 125 μL were added to each well. After 30 minutes, the plates were washed and incubated with […]/H2 O2 substrate in 100 mM/L citrate buffer, pH 5.0. The plate was read with a microtiter plate reader at a wavelength of 450 nm and when the maximum-binding control wells reached an absorbance of about 1.0, the final A450 were recorded for analysis. The data were analyzed using a macro written for use with the EXCEL™ spreadsheet program. The mean, standard deviation, and % CV were determined for duplicate concentrations. The mean A450 values were normalized to the mean of four maximum-binding controls (no competitor added) (B-MAX). The normalized values were subjected to a four parameter curve fit algorithm, [Robard et al., Int.

| SMILES | IC50 [1] [µM] | IC50 [2] [µM] |
| --- | --- | --- |
| N#Cc1cc(NC(=O)c2cccc(NC(=N)N)c2)ccc1/C=C/C(=O)O [Example 44, 3-[4-[[[3-[(aminoiminomethyl)amino]phenyl]carbonyl]amino]-2-cyanophenyl]propenoic acid, trifluoroacetate salt] | 0.0302 | 0.0362 |
| CCOC(=O)Nc1cc(NC(=O)c2cccc(NC3=NCCCN3)c2)ccc1/C=C/C(=O)O [Example 46, 3-[2-[(ethoxycarbonyl)amino]-4-[[[3-[(1,4,5,6-tetrahydropyrimidin-2-yl)amino]phenyl]carbonyl]amino]phenyl]propenoic acid, trifluoroacetate salt] | 0.00719 | 2.6 |
| O=C(O)/C=C/c1ccc(NC(=O)c2cccc(NC3=NCCCN3)c2)cc1 [Example 49, 3-[4-[[[3-[(1,4,5,6-tetrahydropyrimidin-2-yl)amino]phenyl]carbonyl]amino]phenyl]propenoic acid, trifluoroacetate salt] | 0.00218 | 0.661 |
| COc1cc(NC(=O)c2cccc(NC3=NCCCN3)c2)ccc1/C=C/C(=O)O [Example 50, 3-[2-methoxy-4-[[[3-[(1,4,5,6-tetrahydropyrimidin-2-yl)amino]phenyl]carbonyl]amino]phenyl]propenoic acid, trifluoroacetate salt] | 0.00043 | 0.772 |
| N=C(N)Nc1cc(C(=O)Nc2ccc(/C=C/C(=O)O)cc2)cc(C(F)(F)F)c1 [Example 53, 3-[4-[[[3-[(aminoiminomethyl)amino]-5-(trifluoromethyl)-phenyl]carbonyl]amino]phenyl]propenoic acid, trifluoroacetate salt] | 0.00789 | 0.232 |
| COc1cc(NC(=O)c2cc(NC(=N)N)cc(C(F)(F)F)c2)ccc1/C=C/C(=O)O [Example 55, 3-[4-[[[3-[(aminoiminomethyl)amino]-5-(trifluoromethyl)phenyl]carbonyl]amino]-2-methoxyphenyl]propenoic acid, trifluoroacetate salt] | 0.00362 | 0.432 |
| O=C(O)/C=C/c1ccc(NC(=O)c2cccc(NC3=NCCCS3)c2)cc1 [Example 56, 3-[4-[[[3-[(5,6-dihydro-4H-1,3-thiazin-2-yl)amino]phenyl]carbonyl]amino]phenyl]propenoic acid, trifluoroacetate salt] | 0.00403 | 0.656 |
| Cc1cc(/C=C/C(=O)O)cc(C)c1NC(=O)c1cccc(NC2=NCCCS2)c1 [Example 57, 3-[4-[[[3-[(5,6-dihydro-4H-1,3-thiazin-2-yl)amino]phenyl]carbonyl]amino]3,5-dimethylphenyl]propenoic acid, trifluoroacetate salt] | 0.0258 | 12.8 |
| C/C(=C\C(=O)O)c1ccc(NC(=O)c2cccc(NC(=N)N)c2)cc1 [Example 59, 3-[4-[[[3-[(aminoiminomethyl)amino]phenyl]carbonyl]amino]phenyl]-2-butenoicacid, trifluoroacetate salt] | 1.27 | 5.14 |
| O=C(O)/C=C/c1cccc(CNC(=O)c2cccc(NC(=O)NCc3ccccc3)c2)c1 [Example 64, 3-[3-[[[[3-[[[(phenylmethyl)amino]carbonyl]amino]phenyl]carbonyl]amino]methyl]phenyl]propenoic acid, trifluoroacetate salt] | 2.18 | 16.2 |

Continued by falling IC50 [1], values first:

| IC50 [1] [µM] | IC50 [2] [µM] | SMILES |
| --- | --- | --- |
| 0.0725 | 0.133 | NC(=O)N=C(N)Nc1cccc(C(=O)Nc2ccc(/C=C/C(=O)O)cc2)c1 [Example 52, 3-[4-[[[3-[[amino[(aminocarbonyl)imino)methyl]amino]phenyl]carbonyl]amino]phenyl]propenoic acid, trifluoroacetate salt] |
| 0.0673 | 0.44 | N=C(N)Nc1cccc(C(=O)Nc2ccc(/C=C(\NC(=O)c3ccccc3)C(=O)O)cc2)c1 [Example 60, 3-[4-[[[3-[(aminoiminomethyl)amino]phenyl]carbonyl]amino]phenyl]-2-[(phenylcarbonyl)amino]propenoic acid, trifluoroacetate salt] |
| 0.0125 | 0.686 | N=C(N)Nc1cc(C(=O)Nc2ccc(/C=C/C(=O)O)c(Cl)c2)cc(C(F)(F)F)c1 [Example 54, 3-[4-[[[3-[(aminoiminomethyl)amino]-5-(trifluoromethyl)phenyl]carbonyl]amino]-2-chlorophenyl]propenoic acid, trifluoroacetate salt] |
| 0.0076 | 0.0159 | N=C(N)Nc1cccc(C(=O)Nc2ccc(/C=C/C(=O)O)c(/C=C/C(=O)O)c2)c1 [Example 42, 3-[4-[[[3-[(aminoiminomethyl)amino]phenyl]carbonyl]amino]-2-(2-carboxyethenyl)phenyl]propenoic acid, trifluoroacetate salt] |
| 0.0067 | 0.759 | CNC(=O)c1cc(NC(=O)c2cccc(NC3=NCCCN3)c2)ccc1/C=C/C(=O)O [Example 45, 3-[2-[(methylamino)carbonyl]-4-[[[3-[(1,4,5,6-tetrahydropyrimidin-2-yl)amino]phenyl]carbonyl]amino]phenyl]propenoic acid, bis(trifluoroacetate) salt] |
| 0.00204 | 23.3 | O=C(O)/C=C/c1cccc(CNC(=O)c2cccc(NC3=NCCCN3)c2)c1 [Example 62, 3-[3-[[[[3-[(1,4,5,6-tetrahydropyrimidin-2-yl)amino]phenyl]carbonyl]amino]methyl]phenyl]propenoic acid, monohydrochloride] |
